Laboratory results as given in publication PMC12951562, “SH2scan: Mapping SH2 Domain-Ligand Binding Selectivity for Inhibitors and Degraders” (Journal of Medicinal Chemistry, 2026).
Where two headings read alike, the source gives them in different places. Non-standard residues stand in square brackets, D forms with d. Residues, ends and D or L forms follow the SMILES beside them. *: point of attachment. pY = N[C@@H](Cc1ccc(OP(=O)(O)O)cc1)C(=O)O; Caffeoyl = O=C(/C=C/c1ccc(O)c(O)c1)*

How the values were obtained:
Experiment in all cases: biochemical
Format in all cases: binding
SOCS4 = target: T1, SOCS4 (Homo sapiens, UniProt Q8WXH5); settings: for remaining activity at 10 µM: read-out: percent of DMSO vehicle control
T1 construct: made in house; host or cells: HEK293 (transient transfection), unpurified extract
T1 sequence (Q8WXH5 1-440): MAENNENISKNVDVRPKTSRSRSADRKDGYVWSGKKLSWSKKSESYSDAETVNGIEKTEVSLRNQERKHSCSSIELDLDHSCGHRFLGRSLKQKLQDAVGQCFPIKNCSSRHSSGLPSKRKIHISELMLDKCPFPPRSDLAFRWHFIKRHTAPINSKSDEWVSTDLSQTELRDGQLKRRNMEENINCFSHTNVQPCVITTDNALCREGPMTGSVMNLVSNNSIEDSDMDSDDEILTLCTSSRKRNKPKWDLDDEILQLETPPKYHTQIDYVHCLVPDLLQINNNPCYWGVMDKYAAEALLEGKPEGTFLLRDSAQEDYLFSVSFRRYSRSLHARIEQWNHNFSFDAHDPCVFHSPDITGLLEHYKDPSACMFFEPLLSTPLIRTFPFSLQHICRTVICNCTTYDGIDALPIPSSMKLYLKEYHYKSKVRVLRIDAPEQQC

HCK = target: T2, HCK (Homo sapiens, UniProt P08631); settings: for remaining activity at 10 µM: read-out: percent of DMSO vehicle control
T2 construct: the DNA-tagged SH2 domain concentrations used in this study were <0.1 nM; made in house; host or cells: HEK293 (transient transfection, unpurified extract)

SRMS = target: T3, SRMS (Homo sapiens, UniProt Q9H3Y6); settings: for KD: dose-response; for remaining activity at 10 µM: read-out: percent of DMSO vehicle control
T3 construct: made in house; host or cells: HEK293 (transient transfection), unpurified extract

SOCS3 = target: T4, SOCS3 (Homo sapiens, UniProt O14543); settings: for KD: dose-response; for remaining activity at 10 µM: read-out: percent of DMSO vehicle control
T4 construct: made in house; host or cells: HEK293 (transient transfection), unpurified extract
T4 sequence (O14543 1-225): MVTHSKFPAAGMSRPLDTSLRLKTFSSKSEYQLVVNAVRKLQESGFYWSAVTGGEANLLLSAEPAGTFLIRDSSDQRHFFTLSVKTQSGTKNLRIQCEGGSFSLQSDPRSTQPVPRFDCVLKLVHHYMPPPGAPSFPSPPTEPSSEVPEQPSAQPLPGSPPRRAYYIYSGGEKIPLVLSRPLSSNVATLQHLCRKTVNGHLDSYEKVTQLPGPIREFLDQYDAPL

GRB2 = target: T5, GRB2 (Homo sapiens, UniProt P62993); settings: for percent of DMSO vehicle control: primary screen, 10 μM
T5 construct: the DNA-tagged SH2 domain concentrations used in this study were <0.1 nM; made in house; host or cells: HEK293 (transient transfection; unpurified extract)

SLP76 = target: T6, SLP76 (Homo sapiens, UniProt Q13094); settings: for remaining activity at 10 µM: read-out: percent of DMSO vehicle control
T6 construct: made in house; host or cells: HEK293 (transient transfection), unpurified extract
T6 sequence (Q13094 1-533): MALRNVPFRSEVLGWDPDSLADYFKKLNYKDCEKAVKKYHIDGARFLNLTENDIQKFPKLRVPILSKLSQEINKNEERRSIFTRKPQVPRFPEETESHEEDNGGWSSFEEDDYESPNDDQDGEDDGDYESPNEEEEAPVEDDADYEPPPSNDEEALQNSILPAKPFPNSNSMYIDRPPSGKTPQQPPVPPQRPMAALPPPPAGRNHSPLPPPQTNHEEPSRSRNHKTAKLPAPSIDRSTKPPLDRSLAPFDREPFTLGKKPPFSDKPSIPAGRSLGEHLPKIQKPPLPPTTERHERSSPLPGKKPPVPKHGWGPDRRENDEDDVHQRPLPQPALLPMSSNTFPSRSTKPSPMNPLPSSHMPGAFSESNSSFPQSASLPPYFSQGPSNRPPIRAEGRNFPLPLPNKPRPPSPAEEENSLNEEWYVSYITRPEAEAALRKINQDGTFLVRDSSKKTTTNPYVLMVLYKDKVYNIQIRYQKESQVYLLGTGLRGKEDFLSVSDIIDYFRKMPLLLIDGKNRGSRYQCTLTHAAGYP

CBLB = target: T7, CBLB (Homo sapiens, UniProt Q13191); settings: for percent of DMSO vehicle control: primary screen, 10 μM
T7 construct: the DNA-tagged SH2 domain concentrations used in this study were <0.1 nM; made in house; host or cells: HEK293 (transient transfection; unpurified extract)

PIK3R1(SH2dom.N-term.) = target: T8, PIK3R1(SH2dom.N-term.) (Homo sapiens, UniProt P27986); settings: for remaining activity at 10 µM: read-out: percent of DMSO vehicle control
T8 construct: SH2dom.N-term. denotes SH2 domain closest to N-terminus of protein; made in house; host or cells: HEK293 (transient transfection, unpurified extract)
T8 sequence (P27986 333-428 limits assumed): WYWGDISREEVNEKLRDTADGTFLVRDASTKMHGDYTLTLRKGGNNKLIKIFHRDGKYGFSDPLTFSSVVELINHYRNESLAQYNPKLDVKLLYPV

T5 sequence (P62993 60-152 limits assumed): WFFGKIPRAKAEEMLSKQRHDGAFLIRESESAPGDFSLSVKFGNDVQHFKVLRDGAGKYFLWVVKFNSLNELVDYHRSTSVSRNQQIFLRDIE
T3 sequence (Q9H3Y6 whole entry): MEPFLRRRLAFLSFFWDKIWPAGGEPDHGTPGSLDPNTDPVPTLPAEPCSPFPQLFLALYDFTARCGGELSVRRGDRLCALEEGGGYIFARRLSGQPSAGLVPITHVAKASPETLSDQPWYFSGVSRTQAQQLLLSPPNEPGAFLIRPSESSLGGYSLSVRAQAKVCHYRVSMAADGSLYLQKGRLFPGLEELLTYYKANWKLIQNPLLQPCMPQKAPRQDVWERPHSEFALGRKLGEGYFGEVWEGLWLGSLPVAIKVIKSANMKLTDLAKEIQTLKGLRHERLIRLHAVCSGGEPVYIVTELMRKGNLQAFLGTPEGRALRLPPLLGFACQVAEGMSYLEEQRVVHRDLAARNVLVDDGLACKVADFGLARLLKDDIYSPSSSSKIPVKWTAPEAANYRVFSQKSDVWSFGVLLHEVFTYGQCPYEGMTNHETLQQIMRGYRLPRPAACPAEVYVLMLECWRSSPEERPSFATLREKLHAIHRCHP
T7 sequence (Q13191 241-343 limits assumed): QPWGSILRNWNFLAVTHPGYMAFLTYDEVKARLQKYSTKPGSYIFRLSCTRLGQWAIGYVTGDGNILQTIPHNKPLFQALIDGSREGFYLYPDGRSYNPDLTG
T2 sequence (P08631 144-241 limits assumed): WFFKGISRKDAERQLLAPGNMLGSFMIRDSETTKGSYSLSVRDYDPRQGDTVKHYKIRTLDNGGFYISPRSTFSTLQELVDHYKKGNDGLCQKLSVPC

SMILES	Kd (SOCS4; dose-response, read-out: KD)	remaining activity at 10 µM (SOCS4; primary screen, 10 μM)	remaining activity at 10 µM (HCK; primary screen, 10 μM)	KD (SRMS)	remaining activity at 10 µM (SRMS; primary screen, 10 μM)	KD (SOCS3)	remaining activity at 10 µM (SOCS3; primary screen, 10 μM)	percent of DMSO vehicle control (GRB2)	remaining activity at 10 µM (SLP76; primary screen, 10 μM)	percent of DMSO vehicle control (CBLB)	remaining activity at 10 µM (PIK3R1(SH2dom.N-term.); primary screen, 10 μM)	remaining activity at 10 µM (SOCS4)	remaining activity at 10 µM (HCK)	remaining activity at 10 µM (SRMS)	remaining activity at 10 µM (SOCS3)	remaining activity at 10 µM (SLP76)	remaining activity at 10 µM (PIK3R1(SH2dom.N-term.))	other results
O=C(CCl)Nc1cccc(CNC(=O)[C@H](Cc2ccc(OP(=O)(O)O)cc2)NC(=O)Cc2ccc(F)cc2)c1 [MN551]	64 nM	9.6 ± 3.9%	92.7%	No Hit	1.3 ± 0.6%	No Hit	24.4%	103.7%	116%	86.8±3.2%	99.8 ± 1.6%	–	–	–	–	–	–	–
CC[C@H](C)[C@H](NC(=O)[C@H](CCC(=O)O)NC(=O)[C@H](CCC(=O)O)NC(=O)[C@H](Cc1ccc(OP(=O)(O)O)cc1)NC(=O)/C=C/c1ccc(O)c(O)c1)C(=O)N[C@@H](CCC(=O)O)C(=O)O [Caffeic acid-pYEEIE] (Caffeoyl-[pY]EEIE-OH)	–	–	–	–	–	–	–	73.4±9.2%	–	32.7±22.6%	–	2.5 ± 0.1%	0%	0.1%	5.3 ± 0.3%	99.6 ± 4.7%	0.7 ± 0.1%	Kd (SOCS4): 1500 ± 810 nM; Kd (HCK): 6 ± 0.97 nM; Kd (SRMS): 1.2 ± 0.73 nM; Kd (SOCS3): 1800 ± 2000 nM; Kd (CBLB): 5700 ± 1400 nM; Kd (PIK3R1(SH2dom.N-term.)): 140 ± 17 nM
C/C(=C\C(=O)N[C@H](C(=O)N1CCC[C@H]1C(=O)N(c1ccccc1)c1ccc(I)cc1)C(C)(C)C)c1ccc(OP(=O)(O)O)cc1 [STAT6-IN-1]	13 nM	0%	48.8 ± 5.2%	No Hit	7.6 ± 0.5%	No Hit	39.3 ± 22.1%	–	50.8 ± 0.4%	36.0±0.8%	44.8 ± 5%	–	–	–	–	–	–	Kd (GRB2; dose-response, read-out: KD): 6040 ± 1400 nM
O=C(COc1ccc2cc(C(=O)Nc3ccccc3)ccc2c1)NCc1ccc(OP(=O)(O)O)c(OP(=O)(O)O)c1 [Stafib-1]	3900 ± 870 nM	25.5 ± 12.4%	77 ± 19.3%	No Hit	8.9 ± 56.2%	–	72.7 ± 29%	79.5±8.8%	97.5 ± 31%	78.9±15.9%	88.8 ± 24.3%	–	–	–	–	–	–	–
CC[C@H](C)[C@H](NC(=O)[C@H](CCC(=O)O)NC(=O)[C@H](CCC(=O)O)NC(=O)[C@H](Cc1ccc(OP(=O)(O)O)cc1)NC(C)=O)C(=O)N[C@@H](CCC(=O)O)C(N)=O [Ac-pYEEIE-NH2] (Ac-[pY]EEIE-NH2)	–	–	–	–	–	–	–	77.1%	–	116.1%	–	–	–	–	–	–	–	percent of DMSO vehicle control (SOCS4; primary screen, 10 μM): 32.2%; percent of DMSO vehicle control (HCK; primary screen, 10 μM): 82.2%; percent of DMSO vehicle control (SRMS; primary screen, 10 μM): 62.7±1.1%; percent of DMSO vehicle control (SOCS3; primary screen, 10 μM): 149.7%; percent of DMSO vehicle control (SLP76; primary screen, 10 μM): 42.0±2.1%; percent of DMSO vehicle control (PIK3R1(SH2dom.N-term.); primary screen, 10 μM): 87.7%
NC(=O)CC[C@H](NC(=O)[C@@H]1CC[C@@H]2CCN(C(=O)CCCCCC#Cc3cccc4c3CN(C3CCC(=O)NC3=O)C4=O)C[C@H](NC(=O)c3cc4cc(C(F)(F)P(=O)(O)O)ccc4[nH]3)C(=O)N21)C(=O)NC(c1ccccc1)c1ccccc1 (stereo partly shown) [SD-36]	–	–	–	–	–	–	–	92.9±1.6%	–	60.9±5.8%	–	30 ± 17.2%	56.4 ± 3.2%	102 ± 1.9%	100 ± 1.2%	66.5 ± 0.8%	124%	Kd (SOCS4; dose-response): 5900 nM
CC(C)(C)[C@H](NC(=O)/C=C/c1ccc(OP(=O)(O)O)cc1)C(=O)N1CCC[C@H]1C(=O)N(c1ccccc1)c1ccc(I)cc1 [STAT6-IN-3]	10 nM	0%	77.4 ± 4.3%	No Hit	8.5 ± 53.2%	No Hit	52.6 ± 50.6%	72.4±21.8%	93.6 ± 30.3%	69.0±7.6%	85.6 ± 12.9%	–	–	–	–	–	–	–
CC(=O)N[C@@H](Cc1ccc(CP(=O)(O)O)cc1)C(=O)NC1(C(=O)N[C@@H](CC(N)=O)C(=O)NCCCc2c(O)ccc3ccccc23)CCCCC1 [CGP78850]	–	–	–	–	–	–	–	0.0±0.0%	–	122.1±4.2%	–	101 ± 1.6%	60 ± 12.1%	65.3 ± 5.9%	116 ± 4.4%	44.1 ± 5.3%	109 ± 5.7%	Kd (GRB2): 3.4 nM
CC(=O)N1CC[C@H]2CC[C@@H](C(=O)N[C@@H](CCC(N)=O)C(=O)NC(c3ccccc3)c3ccccc3)N2C(=O)[C@@H](NC(=O)c2cc3cc(C(F)(F)P(=O)(O)O)ccc3[nH]2)C1 [SI-109]	–	–	–	–	–	–	–	104.9%	–	128.3%	–	123%	91.9%	123%	153%	61.9%	134%	–
